Data set [1] can be described thus: LogD7.4 shake-flask method (n-octanol/PBS). It is filed as physicochemical. To be noted: radiolabeled compound; n-octanol/PBS pH 7.4; triplicates. On the procedure:
Distribution coefficients (LogD7.4 values) were determined by a shake-flask method. Sample containing the ^203Pb-labeled compound was added to a vial containing 600 µL PBS (pH 7.4) and 600 µL n-octanol. The vial was vortexed vigorously and then centrifuged for 10 min for phase separation. Samples of the octanol (200 µL) and aqueous (200 µL) phases were taken and counted on a PerkinElmer WIZARD 2480 gamma counter. LogD7.4 value was calculated by using the equation: LogD7.4 = log [(counts in octanol phase)/(counts in aqueous phase)]. All the experiments were performed in triplicates.

The test system of data set [2] is FAP^+ U-87 cells. Briefly: Cytotoxicity assay (resazurin) in U-87 cells. It is filed as cell-based. The following applies: single dose 1 µM, incubation time not stated. On the procedure:
In 96-well plates, U-87 cells (3 × 10^3) were seeded in each well and incubated at 37 °C and 5% CO2 for 24 h. The medium was removed and the wells were washed once with PBS. The cytotoxic drug (positive control) or the eFAP conjugate containing the drug were prepared at various concentrations (i.e., 1, 10, 100, 1000 nM) in DMEM culture medium, supplemented with 2 mM L-glutamine, 10% FBS, 50 units/mL penicillin, and 50 µg/mL streptomycin. Medium was used as a negative control. Cells were incubated with 100 µL of the tested compounds for 1, 24, 48, and 72 h. After incubation, medium was removed and each well was washed once with PBS. Next, 100 µL of 10% resazurin solution in culture medium was added to each well and incubated for 2.5 h. Fluorescence measurements were carried out using a microplate reader at 544 nm excitation and 590 nm emission.

The target in data set [3] is T1, FAP (Homo sapiens, UniProt Q12884).
T1 sequence (Q12884 1-760): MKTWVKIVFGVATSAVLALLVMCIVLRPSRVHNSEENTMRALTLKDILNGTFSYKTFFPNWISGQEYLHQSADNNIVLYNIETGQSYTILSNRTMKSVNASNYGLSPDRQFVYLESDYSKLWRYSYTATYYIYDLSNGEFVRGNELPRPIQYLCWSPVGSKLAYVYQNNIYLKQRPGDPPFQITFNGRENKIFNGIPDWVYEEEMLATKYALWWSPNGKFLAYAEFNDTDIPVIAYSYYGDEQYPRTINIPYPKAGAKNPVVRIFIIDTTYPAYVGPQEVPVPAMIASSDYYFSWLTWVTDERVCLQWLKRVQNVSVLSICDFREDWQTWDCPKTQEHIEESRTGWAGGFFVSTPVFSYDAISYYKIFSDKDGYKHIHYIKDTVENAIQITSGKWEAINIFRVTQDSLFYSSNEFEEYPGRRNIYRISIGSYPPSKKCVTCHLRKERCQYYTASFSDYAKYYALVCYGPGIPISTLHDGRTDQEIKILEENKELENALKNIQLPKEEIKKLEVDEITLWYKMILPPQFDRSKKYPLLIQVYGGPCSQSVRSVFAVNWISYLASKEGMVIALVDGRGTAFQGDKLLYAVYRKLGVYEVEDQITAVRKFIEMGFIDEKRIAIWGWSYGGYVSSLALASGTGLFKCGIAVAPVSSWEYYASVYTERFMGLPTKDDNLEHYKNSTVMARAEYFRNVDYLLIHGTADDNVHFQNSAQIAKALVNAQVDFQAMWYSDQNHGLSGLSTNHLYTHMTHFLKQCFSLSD
Briefly: In vitro inhibition assay on human FAP (Z-GP-AMC substrate). It is filed as biochemical. The following applies: enzymatic assay; 20 µM Z-GP-AMC, 20 nM FAP; unit inferred. The protocol:
Enzymatic activity of human FAP (hFAP) and mouse FAP (mFAP) on the Z-GP-AMC substrate was measured at room temperature on a Hidex microplate reader by monitoring the fluorescence at an excitation wavelength of 360 nm and an emission wavelength of 465 nm. The reaction mixture contained 20 µM substrate, 20 nM FAP, assay buffer (50 mM Tris, 100 mM NaCl, 1 mM EDTA, pH 7.4) and tested compound (serial dilution from 10^-6 to 10^-12) in a total volume of 50 µL.

In data set [4] the test system is U-87 tumor. The experiment in a line: Near-infrared fluorescence imaging of U-87 tumor bearing mice. It is filed as in vivo. To be noted: 2 nmol intravenous. From the text: Six-week-old male Balb/c nu/nu-specific and opportunistic pathogen-tree (SOPF) mice were housed in individually ventilated cages, with 4 mice per cage. Upon arrival, mice were acclimated for 1 week, with access to food and water ad libitum. Mice were subcutaneously inoculated on the right shoulder with U-87 or HT-1080.hFAP cells (1 × 10^6 cells). Xenografts were allowed to grow until they reached an appropriate size at the start of the studies. All animal experiments were approved by the Animal Welfare Committee of the Erasmus MC and were conducted in agreement with institutional guidelines (license number: AVD101002017867).
Evaluation of targeting performance of eFAP-17 in near-infrared fluorescence imaging of U-87 tumor bearing mice after intravenous injection of 2 nmol of the probe are given in Figure 9 showing A) NIRF imaging of U-87 tumor bearing mice at 1 h after intravenous injection of 2 nmol of CW800 (left, negative control) or eFAP-17 (right) and B) image of excised tumors 2.5 h post administration of CW800 (left) or eFAP-17 (right).

As for `N#C[C@@H]1CC(F)(F)CN1C(=O)CNC(=O)c1ccnc2c(OCCCNC(=O)CN3CCC(NC(=O)CN4CCN(CC(=O)O)CCN(CC(=O)O)CCN(CC(=O)O)CC4)CC3)cccc12` [eFAP-10, (S)-2,2',2"-(10-(2-((1-(2-((3-((4-((2-(2-Cyano-4,4-difluoropyrrolidin-1-yl)-2-oxoethyl)carbamoyl)quinolin-8-yl)oxy)propyl)amino)-2-oxoethyl)piperidin-4-yl)amino)-2-oxoethyl)-1,4,7,10-tetraazacyclododecane-1,4,7-triyl)triacetic acid], the LogD7.4 in data set [1] is -3.64 ± 0.02.

What is called cell viability is a per cent measure of how many cells are alive, often set against a control. Low readings indicate a greater loss of cells, high ones better survival. For `COc1cc2cc(c1Cl)N(C)C(=O)C[C@H](OC(=O)[C@H](C)N(C)C(=O)CCS)[C@]1(C)O[C@H]1[C@H](C)[C@@H]1C[C@@](O)(NC(=O)O1)[C@H](OC)/C=C/C=C(\C)C2` [DM1, Mertansine], the cell viability in data set [2] amounted to 40%. As to `N#C[C@@H]1CC(F)(F)CN1C(=O)CNC(=O)c1ccnc2c(OCCCNC(=O)CN3CCN(C(=O)CN4CCN(CC(=O)O)CCN(CC(=O)O)CCN(CC(=O)O)CC4)CC3)cccc12` [eFAP-12, (S)-2,2',2"-(10-(2-(4-(2-((3-((4-((2-(2-Cyano-4,4-difluoropyrrolidin-l-yl)-2-oxoethyl)carbamoyl)quinolin-8-yl)oxy)propyl)amino)-2-oxoethyl)piperazin-1-yl)-2-oxoethyl)-1,4,7,10-tetraazacyclododecane-1,4,7-triyl)triacetic acid], the LogD7.4 in data set [1] was -3.72 ± 0.08. In general, IC50 refers to the concentration that inhibits the measured activity by half. `CC1(C)C(/C=C/C2=C(Oc3ccc(S(=O)(=O)O)cc3)C(=C/C=C3/N(CCCCCC(=O)NCCCOc4cccc5c(C(=O)NCC(=O)N6CC(F)(F)C[C@H]6C#N)ccnc45)c4ccc(S(=O)(=O)O)cc4C3(C)C)/CCC2)=[N+](CCCCS(=O)(=O)[O-])c2ccc(S(=O)(=O)O)cc21` [eFAP-17, 4-(2-((E)-2-((E)-3-(2-((E)-1-(6-((3-((4-((2-((S)-2-Cyano-4,4-difluoropyrrolidin-1-yl)-2-oxoethyl)carbamoyl)quinolin-8-yl)oxy)propyl)amino)-6-oxohexyl)-3,3-dimethyl-5-sulfoindolin-2-ylidene)ethylidene)-2-(4-sulfophenoxy)cyclohex-1-en-1-yl)vinyl)-3,3-dimethyl-5-sulfo-3H-indol-1-ium-1-yl)butane-1-sulfonate] showed an IC50 in data set [3] of 5.6 ± 1.6 nM. Also, in data set [4] (NIRF imaging), the “accumulation in healthy tissues” value is “low accumulation in healthy tissues”. The “uptake in the FAP overexpressing tumor” value in data set [4] (NIRF imaging at 1 h, excised tumors 2.5 h) is listed as “high uptake in the FAP overexpressing tumor”. Turning to “(1^4S,1^6S,3^2S,3^3S,2R,4S,10E,12E,14R)-8^6-chloro-1^4-hydroxy-8^5,14-dimethoxy-3^3,2,7,10-tetramethyl-1^2,6-dioxo-7-aza-1(6,4)-oxazinana-3(2,3)-oxirana-8(1,3)-benzenacyclotetradecaphane-10,12-dien-4-yl N-(3-((3-((3-((4-((2-((S)-2-cyano-4,4-difluoropyrrolidin-1-yl)-2-oxoethyl)carbamoyl)quinolin-8-yl)oxy)propyl)amino)-3-oxopropyl)disulfaneyl)propanoyl)-N-methyl-L-alaninate [eFAP-18]”, the cell viability entry in data set [2] is reported as “approximately 25%”. In data set [3], `N#C[C@@H]1CC(F)(F)CN1C(=O)CNC(=O)c1ccnc2c(OCCCNC(=O)CCC(C(=O)O)N3CCN(CC(=O)O)CCN(CC(=O)O)CCN(CC(=O)O)CC3)cccc12` (stereo partly drawn) [eFAP-8, 2,2',2"-(10-(1-Carboxy-4-((3-((4-((2-((S)-2-cyano-4,4-difluoropyrrolidin-1-yl)-2-oxoethyl)carbamoyl)quinolin-8-yl)oxy)propyl)amino)-4-oxobutyl)-1,4,7,10-tetraazacyclododecane-1,4,7-triyl)triacetic acid] gave an IC50 of 1.7 ± 0.5 nM. The compound further had a LogD7.4 in data set [1] of -3.58 ± 0.09.

On to `N#C[C@@H]1CC(F)(F)CN1C(=O)CNC(=O)c1ccnc2c(OCCCNC(=O)C3CCC(CNC(=O)CN4CCN(CC(=O)O)CCN(CC(=O)O)CCN(CC(=O)O)CC4)CC3)cccc12` (stereo partly drawn) [eFAP-9, 2,2',2"-(10-(2-(((4-((3-((4-((2-((S)-2-Cyano-4,4-difluoropyrrolidin-1-yl)-2-oxoethyl)carbamoyl)quinolin-8-yl)oxy)propyl)carbamoyl)cyclohexyl)methyl)amino)-2-oxoethyl)-1,4,7,10-tetraazacyclododecane-1,4,7-triyl)triacetic acid], for which 3.6 ± 2.3 nM corresponded to half-maximal inhibition in data set [3] (IC50). In data set [1], the LogD7.4 is given as -3.47 ± 0.07. The corresponding values for `N#C[C@@H]1CC(F)(F)CN1C(=O)CNC(=O)c1ccnc2c(OCCCNC(=O)COCC(=O)Nc3ccc(CNC(=O)CN4CCN(CC(=O)O)CCN(CC(=O)O)CCN(CC(=O)O)CC4)cc3)cccc12` [eFAP-11, (S)-2,2',2"-(10-(2-((4-(2-(2-((3-((4-((2-(2-Cyano-4,4-difluoropyrrolidin-1-yl)-2-oxoethyl)carbamoyl)quinolin-8-yl)oxy)propyl)amino)-2-oxoethoxy)acetamido)benzyl)amino)-2-oxoethyl)-1,4,7,10-tetraazacyclododecane-1,4,7-triyl)triacetic acid] are 1.8 ± 0.8 nM and -3.34 ± 0.07.

`N#C[C@@H]1CC(F)(F)CN1C(=O)CNC(=O)c1ccnc2c(OCCCNC(=O)CN3CCN(CCNC(=O)CN4CCN(CC(=O)O)CCN(CC(=O)O)CCN(CC(=O)O)CC4)CC3)cccc12` [eFAP-13, (S)-2,2',2"-(10-(2-((2-(4-(2-((3-((4-((2-(2-Cyano-4,4-difluoropyrrolidin-1-yl)-2-oxoethyl)carbamoyl)quinolin-8-yl)oxy)propyl)amino)-2-oxoethyl)piperazin-1-yl)ethyl)amino)-2-oxoethyl)-1,4,7,10-tetraazacyclododecane-1,4,7-triyl)triacetic acid]: the IC50 in data set [3] is 1.7 ± 0.5 nM. Besides, the LogD7.4 in data set [1] was -3.28 ± 0.15.

The values above are taken from patent publication EP4342890A1, “PLATFORM AND SCAFFOLD FOR FAP TARGETING AGENTS” (Erasmus University Rotterdam Medical Center, priority 2022, dated 2024).
